Holding throughout (type): cell-based
Assay [1] concerns Pyricularia oryzae. As to conditions: Concentration 10 ppm; colony diameter vs control, 25° C., second day to seventh day.
The subject of assay [2] is Rhizoctonia solani. The assay is described as follows: In vitro antimicrobial activity, mycelial growth on potato dextrose agar medium. The following applies: Concentration 10 ppm.
The subject of assay [3] is Botrytis cinerea. The assay is described as above. The following applies: Concentration 10 ppm.

“iso-C16 bacillomycin D [Comparative compound]”: the “Growth inhibition ratio (%) Pyricularia oryzae” value in assay [1] is given as 35%. The “Growth inhibition ratio (%) Rhizoctonia solani” value in assay [2] was found to be 9%. Besides, the “Growth inhibition ratio (%) Botrytis cinerea” value in assay [3] is on record as 39%.

The values are drawn from patent US10660335B2, “Plant disease control agent” (SDS BIOTECH K.K., priority 2011, dated 2020).
